Laboratory results as given in patent US10653693B2, “PRMT5 inhibitors and uses thereof” (Epizyme, Inc., priority 2014, dated 2020).
Where two headings read alike, the source gives them in different places.

Experiments:
Z138 = experiment: Cell cycle analysis (propidium iodide staining, FACS); assay type: cell-based, Human; details: 3 days
Description: Cells were seeded in 6-well tissue culture dishes in a volume of 3 mL IMDM+10% horse serum (supplemented with 0.5 μg/mL puromycin for transduced cell lines). Cells were treated with DMSO, 10 nM Formula C, or 200 nM Formula C for 3 days. Cells were harvested by centrifuging at 2,000 RPM for 5 minutes, washing with PBS, washing with citrate buffer, then aspirating excess citrate buffer to leave approximately 50 μL remaining above pellet. Pellets were frozen at −80° C. until ready to process.
Pellets were propidium iodide-stained for FACS using the Becton Dickinson CycleTEST PLUS kit (cat. #340242). Solutions A, B, and C of the kit were thawed and then kept on ice. Cell pellets were thawed rapidly at 37° C. and pipetted up and down to resuspend in 50 μL of citrate buffer.
Approximately one quarter of the cell pellet volume was transferred to a fresh Eppendorf tube. 250 μL of solution A was added to each sample and then inverted 7 to 10 times. Samples were placed on a shaker at 150 RPM for 10 minutes at room temperature. Samples were on ice when not shaking. 250 μL of solution B and 250 μL of solution C were added to each sample in the same fashion. […]
(§1) Samples were processed by FACS on a Becton Dickinson FACSCalibur machine. The percentage of cells in each cell cycle stage was determined using the cell cycle function on the gated single cell population with FlowJo V10 software.

[1] = system: Z-138 cells overexpressing full length (FL) MDM4; experiment: Cell cycle analysis of transduced Z138 cell lines; assay type: cell-based, Human; details: 50 nM or 500 nM; 2, 3, or 4 days
Description: 1×10^6 Z138 cells were seeded in a 6-well tissue culture dish in a volume of 3 mL IMDM+10% horse serum per well. Lentiviruses (MDM4 or EGFP in pLEX vector) were prepared as previously described or purchased from Santa Cruz Biotechnology (cat. # sc-29435-V and sc-108080 for p53 shRNA or scrambled shRNA lentiviruses, respectively). Lentiviral particles were added to seeded cells at […] and supplemented with polybrene at 8 μg/mL. 6-well plates were sealed with Parafilm and spun at 1000×g for 90 minutes at 37° C. for lentiviral treatment. The contents of each well were then collected into separate 15 mL conical tubes and spun at 1000×g for 5 minutes. Supernatant (containing lentivirus and polybrene) was discarded and the cell pellet was resuspended in 3 mL of IMDM+10% horse serum. […]
Transduction efficiency was evaluated for EGFP-transduced cells using fluorescence microscopy. […]
Cells were seeded at 250,000 cells/well in 6-well tissue culture dishes in a volume of 3 mL IMDM+10% horse serum (supplemented with 0.5 μg/mL puromycin for transduced cell lines). […] Pellets were frozen at −80° C. until ready to process. […]
as §1

[2] = Body weight loss in Maver-1 xenograft study; assay type: in vivo; details: 21 days
Description: (§2) Data presented in this example were determined after analysis of 21 day samples of mantle cell lymphoma tumors. Cmin PK samples were taken prior to the last dose on day 21. Tumors were excised, weighed and processed for methyl mark. Methyl mark reduction was measured in tumor samples and is shown as percent of vehicle control (POC). Both SYM11 and sDMA Elisa were used to measure methyl mark and the data shown is averaged from 10 animals. Tumor growth inhibition was determined using tumor volume reduction at day 21 expressed as a percent of POC. In vivo inhibition curves were also generated and IC50 values determined. Plasma levels from each group are averaged from 5 animals. […] The average body weight loss (BWL) in all groups was <6%. All doses tested show >50% TGI. […] The average BWL in all groups was <4%. The average BWL in all groups was <8%, except in the 100 mg/kg does group were 4 animals exceeded BWL of 15%.

Jeko-1 = experiment: Long-term proliferation (LTP) assay; assay type: cell-based; details: Homo sapiens
Z-138 xenograft model = experiment: 21 day mantle cell lymphoma xenograft study: TGI and tumor methyl mark; assay type: in vivo; details: Z-138 efficacy study; all dose groups tested; day 21
Description: as §2, with “Both SYM11 and sDMA Elisa were used to measure methyl mark and the data shown is averaged from 10 animals.” left out

[3] = Body weight loss in Z-138 xenograft study; assay type: in vivo; details: 21 days
Description: as §2

| SMILES | cell cycle effect (Z138; 10 nM) | cell cycle effect (Z138; 200 nM) | sensitivity of cells overexpressing full length (FL) MDM4 to PRMT5 inhibition [1] | average body weight loss (BWL) in all groups [2] [%] | IC50 (Jeko-1; 264 h, 11-day treatment, N = 1, read-out: Formula B LTP IC50) [nM] | IC90 (Jeko-1; 264 h, 11-day treatment, N = 1, read-out: Formula B LTP IC90) [nM] | IC50 (Jeko-1; Table 3, read-out: LTP IC50) [nM] | methyl mark in tumors (sDMA Western blot) (Z-138 xenograft model) | average body weight loss (BWL) in all groups [3] [%] |
| --- | --- | --- | --- | --- | --- | --- | --- | --- | --- |
| O=C(NC[C@H](O)CN1CCc2ccccc2C1)c1ccnc(NC2CCC2)c1 [Formula C] | G1 arrest | cell death | less sensitive | – | – | – | – | – | – |
| CC(=O)N1CCC(Nc2cc(C(=O)NC[C@H](O)CN3CCc4ccccc4C3)ccn2)CC1 [Formula B] | – | – | – | < 4 | 14 | 149 | 5.2 | completely removed | < 6 |
